pIC50: −log10 of the molar value.
What was measured:
Type in all cases: biochemical
Pim-1 = Pim-1 (Homo sapiens (Human), UniProt P11309); assay: Pim-1 kinase assay; details: 1 mM ATP, biotin-labeled BAD peptide substrate; read-out: Pim1 IC50
Method: (§1) Pim-1 and Pim-3 kinase assays-20 μL reactions were run in white 384 well polystyrene plates dotted with 0.8 μL compound/DMSO in the assay buffer (50 mM Tris, pH 7.5, 0.01% Tween-20, 5 mM MgCl2, 0.01% BSA, 5 mM DTT), containing […] Biotin-labeled BAD peptide substrate (AnaSpec 62269), 1 mM ATP, and 2.5 pM (Pim-1, Invitrogen PV3503) or 1.25 pM (Pim-3, Millipore 14-738) enzyme for 1 h at 25° C. Reactions were stopped by addition of 10 μL STOP Buffer (150 mM Tris, pH=7.5, 150 mM NaCl, 75 mM EDTA, 0.01% Tween-20, 0.3% BSA) supplemented with Phospho-Bad (Ser112) Antibody (Cell Signaling 9291) diluted 666-fold, and Streptavidin donor beads (PerkinElmer 6760002) along with Protein-A acceptor beads (PerkinElmer 6760137) at 15 μg/mL each. Supplementation of the STOP buffer with beads and stopping the reactions were done under reduced light. Prior to the stopping reactions STOP buffer with beads was pre-incubated for 1 h in the dark at room temperature. After stopping the reactions, plates were incubated for 1 h in the dark at room temperature before reading on a PHERAstar FS plate reader (BMG Labtech) under reduced light.

Pim-3 = Pim-3 (Homo sapiens (Human), UniProt Q86V86); assay: Pim-3 kinase assay; details: 1 mM ATP, biotin-labeled BAD peptide substrate; read-out: Pim3 IC50
Method: as §1

Pim-2 = Pim-2 (Homo sapiens (Human), UniProt Q9P1W9); assay: Pim-2 kinase assay; details: 1 mM ATP, fluorescein-labeled CREBtide peptide substrate; read-out: Pim2 IC50
Method: Pim-2 kinase assay-20 μL reactions were run in white 384 well polystyrene plates dotted with 0.8 μL compound/DMSO in the assay buffer (50 mM Tris, pH 7.5, 0.01% Tween-20, 5 mM MgCl2, 0.01% BSA, 5 mM DTT), containing 0.05 μm Fluorescein-labeled CREBtide peptide substrate (Invitrogen PV3508), 1 mM ATP, and 1 nM enzyme (Invitrogen PV3649) for 2 h at 25° C. Reactions were stopped by addition of 10 μL TR-FRET Dilution Buffer (Invitrogen PV3574) with 30 mM EDTA and 1.5 nM LanthaScreen Tb-CREB pSer133 antibody (Invitrogen PV3566). After 30 min. incubation at room temperature, plates were read on a PHERAstar FS plate reader (BMG Labtech).

Pim-1, sequence (P11309 whole entry): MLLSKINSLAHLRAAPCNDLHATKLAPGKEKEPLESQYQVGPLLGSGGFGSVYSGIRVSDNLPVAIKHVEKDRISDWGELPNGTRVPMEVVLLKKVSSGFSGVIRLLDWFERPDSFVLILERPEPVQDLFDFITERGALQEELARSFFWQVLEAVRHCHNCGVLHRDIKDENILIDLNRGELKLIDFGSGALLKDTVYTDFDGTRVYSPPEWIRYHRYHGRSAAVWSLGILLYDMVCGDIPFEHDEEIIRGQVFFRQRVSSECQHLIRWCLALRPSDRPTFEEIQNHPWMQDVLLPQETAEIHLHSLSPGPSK
Pim-2, sequence (Q9P1W9 whole entry): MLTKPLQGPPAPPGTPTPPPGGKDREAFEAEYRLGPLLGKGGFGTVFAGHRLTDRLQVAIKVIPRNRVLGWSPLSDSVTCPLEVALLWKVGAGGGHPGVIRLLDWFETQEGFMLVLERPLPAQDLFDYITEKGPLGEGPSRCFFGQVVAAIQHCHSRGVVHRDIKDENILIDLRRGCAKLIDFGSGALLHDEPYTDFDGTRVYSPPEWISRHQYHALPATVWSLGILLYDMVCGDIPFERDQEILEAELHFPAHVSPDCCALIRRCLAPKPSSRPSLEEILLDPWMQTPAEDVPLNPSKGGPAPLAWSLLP

| SMILES | pIC50 (Pim-1) | pIC50 (Pim-3) | pIC50 (Pim-2) |
| --- | --- | --- | --- |
| Nc1oc2cccnc2c1C(=O)Nc1cnccc1N1C[C@@H](N)[C@H](O)[C@@H](C(F)(F)F)C1 (single isomer, unassigned) [Example 87 (Diastereoisomer 2)] | ≥ 8.00 | ≥ 8.00 | 7.00 to 8.00 |
| Nc1sc2ccc(Cl)nc2c1C(=O)Nc1cnccc1N1CCC[C@H](N)C1 (stereo in doubt) [Example 40, 2-Amino-N-[4-(3-aminopiperidin-1-yl)pyridin-3-yl]-5-chlorothieno[3,2-b]pyridine-3-carboxamide] | ≥ 8.00 | 7.00 to 8.00 | < 5.70 |
| Cc1ccc2sc(N)c(C(=O)Nc3cnccc3N3CCC[C@H](N)C3)c2n1 (stereo in doubt) [Example 42, 2-Amino-N-[4-(3-aminopiperidin-1-yl)pyridin-3-yl]-5-methylthieno[3,2-b]pyridine-3-carboxamide] | < 7.40 | < 7.40 | < 5.70 |
| Cn1ncc(NC(=O)c2c(N)sc3cccnc23)c1N1CCCC(N)CC1 (stereo not drawn) [Example 1, 2-Amino-N-[5-(4-aminoazepan-1-yl)-1-methyl-1H-pyrazol-4-yl]thieno[3,2-b]pyridine-3-carboxamide] | ≥ 8.00 | ≥ 8.00 | 6.00 to 7.00 |
| Cn1ncc(NC(=O)c2c(N)sc3cccnc23)c1N1CCC[C@H](N)C1 [Example 2, 2-Amino-N-{5-[(3S)-3-aminopiperidin-1-yl]-1-methyl-1H-pyrazol-4-yl}thieno[3,2-b]pyridine-3-carboxamide] | ≥ 8.00 | ≥ 8.00 | 6.00 to 7.00 |
| Cn1ncc(NC(=O)c2c(N)sc3cccnc23)c1N1CCC[C@@H](N)C1 [Example 3, 2-Amino-N-{5-[(3R)-3-aminopiperidin-1-yl]-1-methyl-1H-pyrazol-4-yl}thieno[3,2-b]pyridine-3-carboxamide] | ≥ 8.00 | ≥ 8.00 | < 5.70 |
| Cn1ncc(NC(=O)c2c(N)sc3cccnc23)c1N1CCCNCC1 [Example 4, 2-Amino-N-[5-(1,4-diazepan-1-yl)-1-methyl-1H-pyrazol-4-yl]thieno[3,2-b]pyridine-3-carboxamide] | ≥ 8.00 | ≥ 8.00 | < 6.00 |
| Cn1ncc(NC(=O)c2c(N)sc3cccnc23)c1-c1ccc2c(c1)C(N)CC2 (stereo not drawn) [Example 5, 2-Amino-N-[5-(3-amino-2,3-dihydro-1H-inden-5-yl)-1-methyl-1H-pyrazol-4-yl]thieno[3,2-b]pyridine-3-carboxamide] | ≥ 8.00 | ≥ 8.00 | 6.00 to 7.00 |
| Nc1sc2cccnc2c1C(=O)Nc1cnccc1N1CCC[C@H](N)C1 [Example 6, 2-Amino-N-{4-[(3S)-3-aminopiperidin-1-yl]pyridin-3-yl}thieno[3,2-b]pyridine-3-carboxamide] | ≥ 8.00 | ≥ 8.00 | 6.00 to 7.00 |
| Nc1sc2cccnc2c1C(=O)Nc1cnccc1N1CCC[C@@H](N)C1 [Example 7, 2-Amino-N-{4-[(3R)-3-aminopiperidin-1-yl]pyridin-3-yl}thieno[3,2-b]pyridine-3-carboxamide] | ≥ 8.00 | < 7.40 | < 5.70 |
| Nc1sc2cccnc2c1C(=O)Nc1cnccc1N1CCCNCC1 [Example 8, 2-Amino-N-[4-(1,4-diazepan-1-yl)pyridin-3-yl]thieno[3,2-b]pyridine-3-carboxamide] | ≥ 8.00 | < 7.40 | < 5.70 |
| Nc1sc2cccnc2c1C(=O)Nc1cnccc1N1CCCC(N)CC1 (stereo not drawn) [Example 9, 2-Amino-N-[4-(4-aminoazepan-1-yl)pyridin-3-yl]thieno[3,2-b]pyridine-3-carboxamide] | 7.00 to 8.00 | < 7.40 | < 5.70 |
| COc1cnc2c(C(=O)Nc3cnccc3N3CCC[C@H](N)C3)c(N)sc2c1 [Example 12, 2-Amino-N-{4-[(3S)-3-aminopiperidin-1-yl]pyridin-3-yl}-6-methoxythieno[3,2-b]pyridine-3-carboxamide] | ≥ 8.00 | ≥ 8.00 | 6.00 to 7.00 |
| COc1cnc2c(C(=O)Nc3cnn(C)c3N3CCCC(N)CC3)c(N)sc2c1 (stereo not drawn) [Example 13, 2-Amino-N-[5-(4-aminoazepan-1-yl)-1-methyl-1H-pyrazol-4-yl]-6-methoxythieno[3,2-b]pyridine-3-carboxamide] | ≥ 8.00 | ≥ 8.00 | 7.00 to 8.00 |
| Nc1sc2cc(OC3CC3)cnc2c1C(=O)Nc1cnccc1N1CCC[C@H](N)C1 [Example 14, 2-Amino-N-{4-[(3S)-3-aminopiperidin-1-yl]pyridin-3-yl}-6-cyclopropoxythieno[3,2-b]pyridine-3-carboxamide] | ≥ 8.00 | ≥ 8.00 | < 5.70 |
| C[C@@H]1C[C@H](N)CN(c2ccncc2NC(=O)c2c(N)sc3cccnc23)C1 [Example 15, 2-Amino-N-{4-[(3S,5R)-3-amino-5-methyl-piperidin-1-yl]pyridin-3-yl}-thieno[3,2-b]pyridine-3-carboxamide] | ≥ 8.00 | ≥ 8.00 | 6.00 to 7.00 |
| COc1ccnc2c(C(=O)Nc3cnccc3N3CCC[C@H](N)C3)c(N)sc12 [Example 16, 2-Amino-N-{4-[(3S)-3-aminopiperidin-1-yl]pyridin-3-yl}-7-methoxythieno[3,2-b]pyridine-3-carboxamide] | ≥ 8.00 | ≥ 8.00 | 6.00 to 7.00 |
| COc1ccnc2c(C(=O)Nc3cnn(C)c3N3CCCC(N)CC3)c(N)sc12 (stereo not drawn) [Example 17, 2-Amino-N-[5-(4-aminoazepan-1-yl)-1-methyl-1H-pyrazol-4-yl]-7-methoxythieno[3,2-b]pyridine-3-carboxamide] | ≥ 8.00 | ≥ 8.00 | ≥ 8.00 |
| CC(C)Oc1ccnc2c(C(=O)Nc3cnccc3N3CCC[C@H](N)C3)c(N)sc12 [Example 18, 2-Amino-N-{4-[(3S)-3-aminopiperidin-1-yl]pyridin-3-yl}-7-isopropoxythieno[3,2-b]pyridine-3-carboxamide] | < 7.40 | ≥ 8.00 | < 6.00 |
| CC(C)Oc1ccnc2c(C(=O)Nc3cnn(C)c3N3CCCC(N)CC3)c(N)sc12 (stereo not drawn) [Example 19, 2-Amino-N-[5-(4-aminoazepan-1-yl)-1-methyl-1H-pyrazol-4-yl]-7-isopropoxythieno[3,2-b]pyridine-3-carboxamide] | ≥ 8.00 | ≥ 8.00 | 7.00 to 8.00 |
| CCOc1ccnc2c(C(=O)Nc3cnccc3N3CCC[C@H](N)C3)c(N)sc12 [Example 20, 2-Amino-N-{4-[(3S)-3-aminopiperidin-1-yl]pyridin-3-yl}-7-ethoxythieno[3,2-b]pyridine-3-carboxamide] | ≥ 8.00 | ≥ 8.00 | 6.00 to 7.00 |
| CCc1cnc2c(C(=O)Nc3cnccc3N3CCC[C@H](N)C3)c(N)sc2c1 [Example 22, 2-Amino-N-{4-[(3S)-3-aminopiperidin-1-yl]pyridin-3-yl}-6-ethylthieno[3,2-b]pyridine-3-carboxamide] | ≥ 8.00 | ≥ 8.00 | 7.00 to 8.00 |
| CCc1cnc2c(C(=O)Nc3cnn(C)c3N3CCCC(N)CC3)c(N)sc2c1 (stereo not drawn) [Example 23, 2-Amino-N-[5-(4-aminoazepan-1-yl)-1-methyl-1H-pyrazol-4-yl]-6-ethylthieno[3,2-b]pyridine-3-carboxamide] | ≥ 8.00 | ≥ 8.00 | 7.00 to 8.00 |
| Nc1sc2cc(-c3ccccc3)cnc2c1C(=O)Nc1cnccc1N1CCC[C@H](N)C1 [Example 24, 2-Amino-N-{4-[(3S)-3-aminopiperidin-1-yl]pyridin-3-yl}-6-phenylthieno[3,2-b]pyridine-3-carboxamide] | ≥ 8.00 | ≥ 8.00 | < 6.00 |
| Cn1ncc(NC(=O)c2c(N)sc3cc(-c4ccccc4)cnc23)c1N1CCCC(N)CC1 (stereo not drawn) [Example 25, 2-Amino-N-[5-(4-aminoazepan-1-yl)-1-methyl-1H-pyrazol-4-yl]-6-phenylthieno[3,2-b]pyridine-3-carboxamide] | ≥ 8.00 | ≥ 8.00 | 7.00 to 8.00 |
| Nc1sc2cc(-c3c(F)cccc3F)cnc2c1C(=O)Nc1cnccc1N1CCC[C@H](N)C1 [Example 26, 2-Amino-N-{4-[(3S)-3-aminopiperidin-1-yl]pyridin-3-yl}-6-(2,6-difluorophenyl)-thieno[3,2-b]pyridine-3-carboxamide] | ≥ 8.00 | ≥ 8.00 | 7.00 to 8.00 |

Source: patent US10000507B2, “Furo- and thieno-pyridine carboxamide compounds useful as pim kinase inhibitors” (Incyte Corporation, priority 2013, dated 2018)
